From patent US20250127790A1, “COMBINATION THERAPY USING VPS34 INHIBITORS” (Deciphera Pharmaceuticals, LLC, priority 2021, published 2025)

Key:
[1] = test system: 786-O renal cell carcinoma cells; assay: qRT-PCR, Type 1 Interferon pathway gene expression in 786-O cells; type: cell-based, Human; conditions: 2 μM, 24 hr
Method: (§1) 786-O cells were grown in RPMI-1640 medium containing 10% fetal bovine serum. Cells were then incubated for 2 days at 37 degrees Celsius, 5% CO2, and 95% humidity. 786-O cells were incubated with 2 μM of compound 1 for 24 hr. Cells were washed with PBS and RNA was isolated using the PureLink RNA kit (#12183018A, Thermo Fisher Scientific) according to the manufacturer's protocol. Genomic DNA was removed using DNA-binding columns (RNeasy plus kit, #74134, Qiagen) and/or DNase treatment (#12185010, Thermo Fisher Scientific). RNA was quantified using NanoDrop (Thermo Fisher Scientific) and 50 ng/μL RNA was used for cDNA synthesis with SuperScript IV VILO Master Mix (#11756050, Thermo Fisher Scientific). Quantitative RT-PCR (qRT-PCR) was run with diluted cDNA (1:25 or 1:12.5), PowerUp SYBR Green Master Mix (#A25741, Thermo Fisher Scientific), and 200 nM primers (see below) on a CFX Connect RT-PCR system (BioRad). Data was analyzed using the ΔΔCT method. Results are mean±SEM of three independent experiments.

[2] = test system: CT26 colorectal cancer cells; assay: qRT-PCR, combination with cGAMP, CT26 cells; type: cell-based, Mouse; conditions: 24 hours, 5 μM Compound 1 or 10 μM Compound 2, 10 mg/mL cGAMP
Method: as §1, with “CT26” for “786-O”, “treated” for “grown in RPMI-1640 medium containing 10% fetal bovine serum. Cells were then incubated for 2 days at 37 degrees Celsius, 5% CO2, and 95% humidity. 786-O cells were incubated with 2 μM of compound 1”, “hours with DMSO or VPS34 inhibitors (5 μM Compound 1 or 10 μM Compound 2) in combination with 10 mg/mL STING agonist cGAMP (green bars).” for “hr.”

[3] = test system: A-498 renal cell carcinoma cells; assay: qRT-PCR with siRNA knockdown of STING pathway genes, A-498 cells; type: cell-based, Human; conditions: 24 h; for increase in mRNA expression of CCL5 / increase in mRNA expression of CXCL10 / increase in mRNA expression of IFNB1 / increase in mRNA expression of IRF7 / IFNB1, IRF7, CCL5 and CXCL10 expression with siRNA knockdown of CGAS / IFNB1, IRF7, CCL5 and CXCL10 expression with siRNA knockdown of STING: 2 μM; for IFNB1, IRF7, CCL5 and CXCL10 expression with siRNA knockdown of CGAS: siCGAS; for IFNB1, IRF7, CCL5 and CXCL10 expression with siRNA knockdown of CGAS / IFNB1, IRF7, CCL5 and CXCL10 expression with siRNA knockdown of STING / IFNB1, IRF7, CCL5 or CXCL10 expression with siRNA knockdown of TBK1: vs compound alone; for IFNB1, IRF7, CCL5 and CXCL10 expression with siRNA knockdown of STING: siSTING; for IFNB1, IRF7, CCL5 or CXCL10 expression with siRNA knockdown of TBK1: siTBK1, 2 μM
Method: A-498 cells were grown in Minimal Essential Medium containing 10% fetal bovine serum. Cells were then incubated for 2 days at 37 degrees Celsius, 5% CO2, and 95% humidity. A498 cells were transfected with scrambled siRNA control (siSCR) or siRNA targeting TBK1 (siTBK1), STING (siSTING) or CGAS (siCGAS). After 48 h cells were treated with DMSO or 2 μM of VPS34 inhibitor (Compound 1 or Compound 2) for 24 h. Cells were washed with PBS and RNA was isolated using the PureLink RNA kit (#12183018A, Thermo Fisher Scientific) according to the manufacturer's protocol. Genomic DNA was removed using DNA-binding columns (RNeasy plus kit, #74134, Qiagen) and/or DNase treatment (#12185010, Thermo Fisher Scientific). RNA was quantified using NanoDrop (Thermo Fisher Scientific) and 50 ng/μL RNA was used for cDNA synthesis with SuperScript IV VILO Master Mix (#11756050, Thermo Fisher Scientific). Quantitative RT-PCR (qRT-PCR) was run with diluted cDNA (1:25 or 1:12.5), PowerUp SYBR Green Master Mix (#A25741, Thermo Fisher Scientific), and 200 nM primers (see below) on a CFX Connect RT-PCR system (BioRad). Data was analyzed using the ΔΔCT method. Results are mean±SEM of three independent experiments.

[4] = test system: 786-O renal cell carcinoma cells; assay: qRT-PCR with siRNA knockdown of STING pathway genes, 786-O cells; type: cell-based, Human; conditions: 24 h, vs compound alone; for IFNB1, CCL5 and CXCL10 expression with siRNA knockdown of CGAS / IRF7 expression with siRNA knockdown of CGAS: siCGAS; for IFNB1, CCL5 and CXCL10 expression with siRNA knockdown of CGAS / IRF7 expression with siRNA knockdown of CGAS / IFNB1, CCL5 and CXCL10 expression with siRNA knockdown of STING / IRF7 expression with siRNA knockdown of STING: 2 μM; for IFNB1, CCL5 and CXCL10 expression with siRNA knockdown of STING / IRF7 expression with siRNA knockdown of STING: siSTING; for IFNB1 expression with siRNA knockdown of TBK1 / IRF7, CCL5 and CXCL10 expression with siRNA knockdown of TBK1: siTBK1, 2 μM
[5] = test system: A-498 renal cell carcinoma cells; assay: Cytokine secretion assay (MSD) with siRNA knockdown, A-498 cells; type: cell-based, human; conditions: 24 h; for CCL5 and CXCL10 secretion with siRNA knockdown of CGAS: siCGAS; for CCL5 and CXCL10 secretion with siRNA knockdown of CGAS / increase in CCL5 protein secretion / increase in CXCL10 protein secretion / CCL5 and CXCL10 protein secretion with siRNA knockdown of STING: 2 μM; for CCL5 and CXCL10 secretion with siRNA knockdown of CGAS / CCL5 and CXCL10 protein secretion with siRNA knockdown of STING / CCL5 or CXCL10 protein secretion with siRNA knockdown of TBK1: vs compound alone; for increase in CCL5 protein secretion / increase in CXCL10 protein secretion: siRNA against non-specific controls (siSCR); for CCL5 and CXCL10 protein secretion with siRNA knockdown of STING: siSTING; for CCL5 or CXCL10 protein secretion with siRNA knockdown of TBK1: siTBK1, 2 μM
Method: A-498 cells were transfected with scrambled siRNA control (siSCR) or siRNA targeting TBK1 (siTBK1), STING (siSTING) or CGAS (siCGAS). After 48 h cells were treated with DMSO or 2 μM of VPS34 inhibitor (Compound 1 or Compound 2) for 24 h. Cell culture medium was centrifuged at 1600 rpm for 10 min at 4° C. and obtained supernatant stored at −80° C. Cytokine levels were quantified using following Meso Scale Discovery (MSD) assays: human R-PLEX RANTES/CCL5 (#F21ZN), U-PLEX CXCL10/IP-10 (#K151UFK). Assays were run on the SECTOR Quickplex Imager and analyzed using Discovery Workbench version 4.0 (MSD).

| SMILES | increase in mRNA expression of IRF9 [1] | CCL5 mRNA expression [2] | CXCL10 mRNA expression [2] | increase in mRNA expression of CCL5 [3] [fold] | increase in mRNA expression of CXCL10 [3] [fold] | increase in mRNA expression of IFNB1 [3] [fold] | increase in mRNA expression of IRF7 [3] [fold] | IFNB1, IRF7, CCL5 and CXCL10 expression with siRNA knockdown of CGAS [3] | IFNB1, IRF7, CCL5 and CXCL10 expression with siRNA knockdown of STING [3] | IFNB1, IRF7, CCL5 or CXCL10 expression with siRNA knockdown of TBK1 [3] | IFNB1, CCL5 and CXCL10 expression with siRNA knockdown of CGAS [4] | IRF7 expression with siRNA knockdown of CGAS [4] | IFNB1, CCL5 and CXCL10 expression with siRNA knockdown of STING [4] | IRF7 expression with siRNA knockdown of STING [4] | IFNB1 expression with siRNA knockdown of TBK1 [4] | IRF7, CCL5 and CXCL10 expression with siRNA knockdown of TBK1 [4] | CCL5 and CXCL10 secretion with siRNA knockdown of CGAS [5] | increase in CCL5 protein secretion [5] [fold] | increase in CXCL10 protein secretion [5] [fold] | CCL5 and CXCL10 protein secretion with siRNA knockdown of STING [5] | further results |
| --- | --- | --- | --- | --- | --- | --- | --- | --- | --- | --- | --- | --- | --- | --- | --- | --- | --- | --- | --- | --- | --- |
| C[C@@H]1COCCN1c1cc(N2CCCC[C@@H]2C(F)(F)F)[nH]c(=O)c1 [Compound 1, 4-((R)-3-methylmorpholino)-6-((R)-2-(trifluoromethyl)piperidin-1-yl)pyridin-2(1H)-one] | approximately 2 fold | increased | increased | > 4 | > 5 | > 5 | ~4 | complete ablation | complete ablation | moderate or negligible changes | complete ablation | significant decreases | complete ablation | significant decreases | near complete ablation | modest decreases | down to the levels of DMSO controls | ~2 | ~2 | down to the levels of DMSO controls | CCL5 or CXCL10 protein secretion with siRNA knockdown of TBK1 [5]: non-significant changes |
| C[C@@H]1COCCN1c1cc(=O)n2c(n1)N(Cc1cncc(Cl)c1)[C@H](C(F)(F)F)CC2 [Compound 2, (S)-9-((5-chloropyridin-3-yl)methyl)-2-((R)-3-methylmorpholino)-8-(trifluoromethyl)-6,7,8,9-tetrahydro-4H-pyrimido[1,2-a]pyrimidin-4-one] | approximately 2 fold | increased | increased | ~8 | ~10 | > 10 | ~7 | complete ablation | complete ablation | moderate or negligible changes | complete ablation | significant decreases | complete ablation | significant decreases | near complete ablation | modest decreases | down to the levels of DMSO controls | ~2 | ~2 | down to the levels of DMSO controls | CCL5 or CXCL10 protein secretion with siRNA knockdown of TBK1 [5]: non-significant changes |
